Measured values reported in patent US20160346249A1 (priority 2012, published 2016).
Read-outs that look alike come from different tables or passages of the source.

Legend:
[1] = Single dose 300 mg / 450 mg pharmacokinetic, safety and tolerability study in healthy male and female subjects; details: for Tmax / half-life / AUC(0-inf) / AUC(0-t) / Cmax / MRT inf / CL renal: human, po; for Tmax / half-life / AUC(0-inf) / AUC(0-t) / Cmax / MRT inf: plasma; for CL renal: urine and plasma, renal clearance; for CL renal / Percent of Dose in Urine (0-24 hr): Mean (SD)
Source text: Fourteen subjects, divided equally between males and females, were enrolled in the study and randomized between test article (5/sex) and placebo (2/sex). […] All subjects met the inclusion and exclusion criteria for entry into the study as detailed in the protocol and signed an informed consent form.
The subjects were confined to the clinical study site from Day −1 to the morning of Day 2, when they underwent a brief physical examination, clinical laboratory tests, and a physician visit before they were discharged. On Day 7, they reported to the clinical site again and were confined to the site until the morning of Day 9. At that time, they underwent a complete physical examination, clinical laboratory tests, and a physician's visit before they were discharged from the study. All subjects were fasted overnight on Days −1 and 7 from approximately 22:00 to approximately 4 hours post-dose on Days 1 and 8, at which time they received a standard lunch.
Subjects that received the placebo (2/sex) ingested six identical looking capsules with no drug. […] Capsules on both days were ingested with 240 mL water. […] Samples were collected into lithium heparin-containing Vacutainers® and centrifuged at approximately 3000 rpm to obtain the plasma fraction. The plasma was split into two polypropylene tubes and stored at −20° C. […] The urine volumes were recorded and an aliquot was stored for drug concentration measurements.
Validated LC/MS/MS assays were used for analyses; the assay range for both analytes in plasma and urine were 5.00 to 2000 ng/mL.
Plasma concentration-time data for each subject were analyzed with WinNonlin, version 4.1 (Pharsight Corporation, Mountain View, Calif.) using a non-compartmental model. […] Plasma concentrations listed as not detected (ND) or below the lower limit of quantitation (LLOQ) were set to zero. The values of Cmax and Tmax were the observed values for each subject. AUC0-t was determined using the linear trapezoidal rule whenever the concentration data were increasing and the logarithmic trapezoidal rule any time that the concentration data were decreasing. The apparent λz was calculated as the negative slope of the log-linear terminal portion of the blood concentration-time curve using linear regression. To allow for accurate calculation of λz, a minimum of three observations, selected by WinNonlin, was used. The t½ was calculated as ln 2/λz. AUC0-t was extrapolated to infinity (AUC0-∞) as follows: AUC0-∞=AUC0-t+Clast/λz where Clast is the last quantifiable concentration. The apparent oral clearance (CL/F) was calculated as Dose/AUC0-∞. The apparent oral volume of distribution (Vz/F) was calculated as Dose/λz×AUC0-∞. The mean residence time from time zero to infinity (MRT0-∞) was calculated as AUMC0-∞/AUC0-∞.

[2] = mouse, in vivo; for AUC0-24: po
[3] = single oral 300 mg DOV 21,947 HCl IR, Female, N = 5
[4] = single oral 300 mg DOV 21,947 HCl IR, Male, N = 5
[5] = single oral 300 mg DOV 21,947 HCl IR, mean, N = 10
[6] = single oral 450 mg DOV 21,947 HCl IR, Female, N = 5
[7] = single oral 450 mg DOV 21,947 HCl IR, Male, N = 5

Clc1ccc([C@]23CNC[C@H]2C3)cc1Cl [amitifadine, (+)-1-(3,4-dichlorophenyl)-3-azabicyclo[3.1.0]hexane]
Tmax ([1]; both, 300 mg): 2.15 h
half-life ([1]; both, 300 mg, t½ (Harmonic mean), single oral 300 mg DOV 21,947 HCl IR, N = 10): 4.2 h
half-life ([1]; both, 300 mg, t½, single oral 300 mg DOV 21,947 HCl IR, arithmetic mean, N = 10): 4.24 h
AUC(0-inf) ([1]; both, 450 mg): 30500 ng·h/mL
AUC(0-t) ([1]; both, 450 mg): 30000 ng·h/mL
Cmax ([1]; both, 450 mg): 5110 ng/mL
MRT inf ([1]; both, 450 mg): 6.39 h
Tmax ([1]; both, 450 mg): 2.43 h
half-life ([1]; both, 450 mg, t½ (Harmonic mean), single oral 450 mg DOV 21,947 HCl IR, N = 10): 3.77 h
half-life ([1]; both, 450 mg, t½, single oral 450 mg DOV 21,947 HCl IR, arithmetic mean, N = 10): 3.82 h
CL renal ([1]; both, 300 mg, 300 mg single oral dose): 0.943 mL/min
CL renal ([1]; both, 450 mg, 450 mg single oral dose): 0.647 mL/min
AUC(0-inf) ([1]; female, 300 mg): 20500 ng·h/mL
AUC(0-t) ([1]; female, 300 mg): 20100 ng·h/mL
Cmax ([1]; female, 300 mg): 3260 ng/mL
MRT inf ([1]; female, 300 mg): 6.51 h
Tmax ([1]; female, 300 mg): 2.7 h
half-life ([1]; female, 300 mg, t½ (Harmonic mean), single oral 300 mg DOV 21,947 HCl IR, N = 5): 4.1 h
half-life ([1]; female, 300 mg, t½, single oral 300 mg DOV 21,947 HCl IR, N = 5, arithmetic mean): 4.14 h
AUC(0-inf) ([1]; female, 450 mg): 29900 ng·h/mL
AUC(0-t) ([1]; female, 450 mg): 29500 ng·h/mL
Cmax ([1]; female, 450 mg): 4540 ng/mL
MRT inf ([1]; female, 450 mg): 6.42 h
Tmax ([1]; female, 450 mg): 3 h
half-life ([1]; female, 450 mg, t½ (Harmonic mean), single oral 450 mg DOV 21,947 HCl IR, N = 5): 3.57 h
half-life ([1]; female, 450 mg, t½, single oral 450 mg DOV 21,947 HCl IR, N = 5, arithmetic mean): 3.58 h
AUC(0-inf) ([1]; male, 300 mg): 19000 ng·h/mL
AUC(0-t) ([1]; male, 300 mg): 18600 ng·h/mL
Cmax ([1]; male, 300 mg): 3480 ng/mL
MRT inf ([1]; male, 300 mg): 6.07 h
Tmax ([1]; male, 300 mg): 1.6 h
half-life ([1]; male, 300 mg, t½ (Harmonic mean), single oral 300 mg DOV 21,947 HCl IR, N = 5): 4.31 h
half-life ([1]; male, 300 mg, t½, single oral 300 mg DOV 21,947 HCl IR, N = 5, arithmetic mean): 4.34 h
AUC(0-inf) ([1]; male, 450 mg): 31100 ng·h/mL
AUC(0-t) ([1]; male, 450 mg): 30500 ng·h/mL
Cmax ([1]; male, 450 mg): 5680 ng/mL
MRT inf ([1]; male, 450 mg): 6.35 h
Tmax ([1]; male, 450 mg): 1.85 h
half-life ([1]; male, 450 mg, t½ (Harmonic mean), single oral 450 mg DOV 21,947 HCl IR, N = 5): 4 h
half-life ([1]; male, 450 mg, t½, single oral 450 mg DOV 21,947 HCl IR, N = 5, arithmetic mean): 4.06 h
CL/F [1, 3]: 13.0 L/h
λz [1, 3]: 0.169 h⁻¹
CL/F [1, 4]: 14.2 L/h
λz [1, 4]: 0.161 h⁻¹
Percent of Dose in Urine (0-24 hr) ([1]; single oral 300 mg DOV 21,947 HCl IR): 0.411 (0.121) Percent of Dose
Mean Amount in Urine ([1]; single oral 300 mg DOV 21,947 HCl IR, Period 0-1 hr): 17.0 µg
Mean Amount in Urine ([1]; single oral 300 mg DOV 21,947 HCl IR, Period 1-2 hr): 115 µg
Mean Amount in Urine ([1]; single oral 300 mg DOV 21,947 HCl IR, Period 2-4 hr): 279 µg
Mean Amount in Urine ([1]; single oral 300 mg DOV 21,947 HCl IR, Period 4-8 hr): 371 µg
Mean Amount in Urine ([1]; single oral 300 mg DOV 21,947 HCl IR, Period 8-12 hr): 137 µg
Mean Amount in Urine ([1]; single oral 300 mg DOV 21,947 HCl IR, Period 12-24 hr): 115 µg
Mean Amount in Urine ([1]; single oral 300 mg DOV 21,947 HCl IR, Total (0-24 hr)): 1064 µg
CL/F [1, 5]: 13.6 L/h
λz [1, 5]: 0.165 h⁻¹
CL/F [1, 6]: 13.7 L/h
λz [1, 6]: 0.194 h⁻¹
CL/F [1, 7]: 12.8 L/h
λz [1, 7]: 0.173 h⁻¹
Percent of Dose in Urine (0-24 hr) ([1]; single oral 450 mg DOV 21,947 HCl IR): 0.299 (0.143) Percent of Dose
Mean Amount in Urine ([1]; single oral 450 mg DOV 21,947 HCl IR, Period 0-1 hr): 9.4 µg
Mean Amount in Urine ([1]; single oral 450 mg DOV 21,947 HCl IR, Period 1-2 hr): 66.3 µg
Mean Amount in Urine ([1]; single oral 450 mg DOV 21,947 HCl IR, Period 2-4 hr): 322 µg
Mean Amount in Urine ([1]; single oral 450 mg DOV 21,947 HCl IR, Period 4-8 hr): 402 µg
Mean Amount in Urine ([1]; single oral 450 mg DOV 21,947 HCl IR, Period 8-12 hr): 195 µg
Mean Amount in Urine ([1]; single oral 450 mg DOV 21,947 HCl IR, Period 12-24 hr): 164 µg
Mean Amount in Urine ([1]; single oral 450 mg DOV 21,947 HCl IR, Total (0-24 hr)): 1159 µg
λz ([1]; single oral 450 mg DOV 21,947 HCl IR, mean, N = 10): 0.184 h⁻¹
AUC0-24 ([2]; female, Crl:CD-1(ICR) BR, 10 mg/kg/day): 2086 ng·h/mL
AUC0-24 ([2]; female, Crl:CD-1(ICR) BR, 30 mg/kg/day): 6474 ng·h/mL
AUC0-24 ([2]; female, Crl:CD-1(ICR) BR, 100 mg/kg/day): 26436 ng·h/mL
twitching (animals affected) ([2]; male, Crl:CD-1(ICR) BR, 150 mg/kg/day, 0 study day): 3/10
AUC0-24 ([2]; male, Crl:CD-1(ICR) BR, 10 mg/kg/day): 1907 ng·h/mL
AUC0-24 ([2]; male, Crl:CD-1(ICR) BR, 30 mg/kg/day): 7250 ng·h/mL
AUC0-24 ([2]; male, Crl:CD-1(ICR) BR, 100 mg/kg/day): 40306 ng·h/mL
AUC0-24 ([2]; male, Crl:CD-1(ICR) BR, 150 mg/kg/day): 40248 ng·h/mL
absolute liver weight higher ([2]; 150 mg/kg/day): 22%
absolute lymphocyte counts lower ([2]; 150 mg/kg/day): 54%
percent neutrophil counts higher ([2]; 150 mg/kg/day): 183%
percentage lymphocyte counts lower ([2]; 150 mg/kg/day): 31%
